For test [1], the target named is T1, Rat SERT (Rattus norvegicus, UniProt P31652).
T1 construct: A rat brain without cerebellum (Zivic Laboratories, Inc.—Pittsburgh, Pa.) was homogenized; tissue Zivic Laboratories, Inc; host or cells: rat brain without cerebellum, membranes
Briefly: Rat brain SERT binding ([3H]-citalopram displacement). Conditions: rat brain membranes without cerebellum, 0.6 nM [3H]-citalopram, 60 min at 25° C.; read-out: Rat SERT Ki. The protocol:
The supernatant was removed and re-centrifuged at 15,000 rpm for 30 min. […] Membranes were incubated with 0.6 nM [^3H]-Citalopram plus/minus test compounds for 60 min at 25° C. and harvested by rapid filtration over GF/C glass fiber filters (pretreated with 0.3% polyethylenimine) followed by four washes with ice-cold buffer.

For test [2], the target named is T2, human SERT (Homo sapiens, UniProt P31645).
T2 construct: expressed in transfected cells; host or cells: HEK293 membranes
T2 sequence (P31645 whole entry): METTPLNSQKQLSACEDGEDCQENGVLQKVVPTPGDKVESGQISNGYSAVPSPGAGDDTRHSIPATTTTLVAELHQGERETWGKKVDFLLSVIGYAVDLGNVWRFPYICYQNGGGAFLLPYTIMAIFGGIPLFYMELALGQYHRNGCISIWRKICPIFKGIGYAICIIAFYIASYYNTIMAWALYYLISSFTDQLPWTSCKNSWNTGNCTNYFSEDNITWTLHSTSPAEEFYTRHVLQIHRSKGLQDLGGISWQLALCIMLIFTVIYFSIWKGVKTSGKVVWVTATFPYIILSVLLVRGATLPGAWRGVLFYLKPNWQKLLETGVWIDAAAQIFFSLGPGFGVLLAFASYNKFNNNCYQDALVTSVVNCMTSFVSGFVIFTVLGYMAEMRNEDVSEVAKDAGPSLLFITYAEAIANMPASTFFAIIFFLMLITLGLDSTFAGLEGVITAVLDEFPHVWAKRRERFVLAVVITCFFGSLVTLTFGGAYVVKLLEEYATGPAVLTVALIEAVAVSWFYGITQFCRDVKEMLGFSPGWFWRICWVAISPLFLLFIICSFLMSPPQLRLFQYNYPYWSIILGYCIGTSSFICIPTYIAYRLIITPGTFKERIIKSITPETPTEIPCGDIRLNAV
In words: Human SERT binding (3H-citalopram displacement). Conditions: HEK293 membranes expressing human SERT, rt 1 h. The protocol: Homogenized HEK293 (Human Embryonic Kidney) membranes expressing the human SERT were incubated with ^3H-citalopram (SERT) at rt for 1 h in 50 mM Tris, 120 mM NaCl, 5 mM KCl (pH 7.4). […] The membranes were washed and the radioactivity was counted as above.

The target of test [3] is T3, human H3 receptor (Homo sapiens, UniProt Q9Y5N1).
T3 construct: expressed in transfected cells
T3 sequence (Q9Y5N1 whole entry): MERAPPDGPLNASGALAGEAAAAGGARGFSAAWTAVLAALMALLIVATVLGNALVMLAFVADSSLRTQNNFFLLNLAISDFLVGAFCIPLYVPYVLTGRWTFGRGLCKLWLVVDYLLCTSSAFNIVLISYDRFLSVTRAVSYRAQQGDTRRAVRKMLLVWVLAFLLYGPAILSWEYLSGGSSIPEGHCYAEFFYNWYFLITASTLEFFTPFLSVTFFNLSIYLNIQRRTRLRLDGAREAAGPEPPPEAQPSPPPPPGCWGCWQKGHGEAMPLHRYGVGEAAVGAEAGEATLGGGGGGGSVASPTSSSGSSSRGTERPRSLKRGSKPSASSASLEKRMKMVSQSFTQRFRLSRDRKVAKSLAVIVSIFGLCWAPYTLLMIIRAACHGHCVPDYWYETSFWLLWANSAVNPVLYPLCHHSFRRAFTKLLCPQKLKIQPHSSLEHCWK
In words: H3 receptor binding (N-[3H]-α-methylhistamine displacement). As to conditions: membranes of SK-N-MC cells expressing cloned human H3 receptor, 0.8 nM N-[3H]-α-methylhistamine, 60 min at 25° C.

By Ki is commonly meant a dissociation constant, usually derived from enzyme kinetics or from competition with a known ligand.

The structures appear in SMILES notation.

T1 sequence (P31652 whole entry): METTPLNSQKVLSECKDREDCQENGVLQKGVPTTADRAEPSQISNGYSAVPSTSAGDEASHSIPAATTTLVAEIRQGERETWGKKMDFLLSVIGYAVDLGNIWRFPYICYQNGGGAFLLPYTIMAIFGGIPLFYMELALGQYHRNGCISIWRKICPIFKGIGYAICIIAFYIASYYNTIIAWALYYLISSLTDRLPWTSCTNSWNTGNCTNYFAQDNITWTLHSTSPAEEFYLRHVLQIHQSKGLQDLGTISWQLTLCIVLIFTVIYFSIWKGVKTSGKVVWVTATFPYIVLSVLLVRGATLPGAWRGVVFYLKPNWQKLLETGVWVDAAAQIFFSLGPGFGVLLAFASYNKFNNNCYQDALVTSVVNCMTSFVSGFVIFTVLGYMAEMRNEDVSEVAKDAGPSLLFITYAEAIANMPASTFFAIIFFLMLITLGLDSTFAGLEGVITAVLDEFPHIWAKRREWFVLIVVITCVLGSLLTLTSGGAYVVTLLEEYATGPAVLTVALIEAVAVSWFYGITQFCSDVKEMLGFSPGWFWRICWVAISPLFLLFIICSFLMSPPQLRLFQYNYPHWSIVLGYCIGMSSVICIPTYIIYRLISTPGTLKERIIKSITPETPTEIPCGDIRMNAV

Consider `COc1ccc(C2CN(C)Cc3cc(OCCCN4CCC(F)CC4)ccc32)cc1` (racemic) [Example 1, 7-[3-(4-Fluoro-piperidin-1-yl)-propoxy]-4-(4-methoxy-phenyl)-2-methyl-1,2,3,4-tetrahydro-isoquinoline], for which the inhibition constant (Ki) in test [1] was 2 nM; in test [2], 3 nM.
Consider `COc1ccc(C2CN(C)Cc3cc(OCCCN4CCCC(F)(F)C4)ccc32)cc1` (single isomer, unassigned) [Example 29A, 7-[3-(3,3-Difluoro-piperidin-1-yl)-propoxy]-4-(4-methoxy-phenyl)-2-methyl-1,2,3,4-tetrahydro-isoquinoline], for which the affinity in test [2] corresponds to a Ki of 13 nM.
Consider `COc1ccc(C2CN(C)Cc3cc(OCCCN(C4CC4)C4CCN(C)CC4)ccc32)cc1` (stereo not drawn) [Example 224, Cyclopropyl-{3-[4-(4-methoxy-phenyl)-2-methyl-1,2,3,4-tetrahydro-isoquinolin-7-yloxy]-propyl}-(1-methyl-piperidin-4-yl)-amine], for which the Ki in test [3] amounted to 61 nM; in test [1], 32 nM.
For `COCCNCCCOc1ccc2c(c1)CN(C)CC2c1ccc(OC)cc1` (stereo not drawn) [Example 225, (2-Methoxy-ethyl)-{3-[4-(4-methoxy-phenyl)-2-methyl-1,2,3,4-tetrahydro-isoquinolin-7-yloxy]-propyl}-amine], the Ki is 46 nM in test [3] and 1 nM in test [1].
Take `COc1ccc(C2CN(C)Cc3cc(OCCCNCCCO)ccc32)cc1` (stereo not drawn) [Example 226, 3-{3-[4-(4-Methoxy-phenyl)-2-methyl-1,2,3,4-tetrahydro-isoquinolin-7-yloxy]-propylamino}-propan-1-ol]: the Ki amounted to 107 nM in test [3] and 1 nM in test [1].
For `C=CCNCCCOc1ccc2c(c1)CN(C)CC2c1ccc(OC)cc1` (stereo not drawn) [Example 227, Allyl-{3-[4-(4-methoxy-phenyl)-2-methyl-1,2,3,4-tetrahydro-isoquinolin-7-yloxy]-propyl}-amine] the same measures were 52 nM and 1 nM.
For `COc1ccc(C2CN(C)Cc3cc(OCCCNCC(C)C)ccc32)cc1` (stereo not drawn) [Example 228, Isobutyl-{3-[4-(4-methoxy-phenyl)-2-methyl-1,2,3,4-tetrahydro-isoquinolin-7-yloxy]-propyl}-amine] the same measures were 38 nM and 1 nM.
For the compound `COc1ccc(C2CN(C)Cc3cc(OCCCNC4CC4)ccc32)cc1` (stereo not drawn) [Example 229, Cyclopropyl-{3-[4-(4-methoxy-phenyl)-2-methyl-1,2,3,4-tetrahydro-isoquinolin-7-yloxy]-propyl}-amine], the results for the Ki in test [3] and in test [1] were 18 nM and 2 nM, respectively.
As to `COc1ccc(C2CN(C)Cc3cc(OCCCNC(C)C)ccc32)cc1` (stereo not drawn) [Example 230, Isopropyl-{3-[4-(4-methoxy-phenyl)-2-methyl-1,2,3,4-tetrahydro-isoquinolin-7-yloxy]-propyl}-amine], the Ki in test [3] was 17 nM; in test [1], 1 nM.
Consider `CCCNCCCOc1ccc2c(c1)CN(C)CC2c1ccc(OC)cc1` (stereo not drawn) [Example 231, {3-[4-(4-Methoxy-phenyl)-2-methyl-1,2,3,4-tetrahydro-isoquinolin-7-yloxy]-propyl}-propyl-amine], for which the Ki came out at 61 nM in test [3] and 2 nM in test [1].
Regarding `CCNCCCOc1ccc2c(c1)CN(C)CC2c1ccc(OC)cc1` (stereo not drawn) [Example 232, Ethyl-{3-[4-(4-methoxy-phenyl)-2-methyl-1,2,3,4-tetrahydro-isoquinolin-7-yloxy]-propyl}-amine], the Ki in test [3] amounted to 20 nM; in test [1], 1 nM.
Taken in the same sequence, the figures for `COc1ccc(C2CN(C)Cc3cc(OCCCN(C)C(C)C)ccc32)cc1` (stereo not drawn) [Example 233, Isopropyl-{3-[4-(4-methoxy-phenyl)-2-methyl-1,2,3,4-tetrahydro-isoquinolin-7-yloxy]-propyl}-methyl-amine] were 4 nM and 3 nM.
For `COc1ccc(C2CN(C)Cc3cc(OCCCN(C)C4CC4)ccc32)cc1` (stereo not drawn) [Example 234, Cyclopropyl-{3-[4-(4-methoxy-phenyl)-2-methyl-1,2,3,4-tetrahydro-isoquinolin-7-yloxy]-propyl}-methyl-amine] the same measures were 3 nM and 3 nM.
Consider `COc1ccc(C2CN(C)Cc3cc(OCCCN(C4CC4)C4CC4)ccc32)cc1` (stereo not drawn) [Example 235, Dicyclopropyl-{3-[4-(4-methoxy-phenyl)-2-methyl-1,2,3,4-tetrahydro-isoquinolin-7-yloxy]-propyl}-amine], for which the Ki is 6 nM in test [3] and 7 nM in test [1].
As for `CSc1ccc(C2CN(C)Cc3cc(OCC4CN(CCF)C4)ccc32)cc1` (stereo not drawn) [Example 239, 7-[1-(2-Fluoro-ethyl)-azetidin-3-ylmethoxy]-2-methyl-4-(4-methylsulfanyl-phenyl)-1,2,3,4-tetrahydro-isoquinoline], the Ki in test [3] amounted to 30 nM; in test [1], 2 nM.
For `COc1ccc(C2CN(C)Cc3cc(OC4CCN(CC#N)CC4)ccc32)cc1` (stereo not drawn) [Example 242], the Ki was 124 nM in test [3] and 6 nM in test [1].
`CSc1ccc(C2CN(C)Cc3cc(OC4CCN(CCC(F)(F)F)CC4)ccc32)cc1` (stereo not drawn) [Example 244, 2-Methyl-4-(4-methylsulfanyl-phenyl)-7-[1-(3,3,3-trifluoro-propyl)-piperidin-4-yloxy]-1,2,3,4-tetrahydro-isoquinoline]: the Ki in test [3] came to 129 nM; in test [1], 7 nM.
Regarding `CSc1ccc(C2CN(C)Cc3cc(OC4CCN(CC#N)CC4)ccc32)cc1` (stereo not drawn) [Example 245, {4-[2-Methyl-4-(4-methylsulfanyl-phenyl)-1,2,3,4-tetrahydro-isoquinolin-7-yloxy]-piperidin-1-yl}-acetonitrile], the inhibitory constant (Ki) in test [3] came to 336 nM; in test [1], 7 nM.
For `CSc1ccc(C2CN(C)Cc3cc(OC4CCN(C5CCOCC5)CC4)ccc32)cc1` (stereo not drawn) [Example 246, 2-Methyl-4-(4-methylsulfanyl-phenyl)-7-[1-(tetrahydro-pyran-4-yl)-piperidin-4-yloxy]-1,2,3,4-tetrahydro-isoquinoline] the same measures were 3 nM and 10 nM.
For `COc1ccc(C2CN(C)Cc3cc(OCC4CCN(C5CCC5)CC4)ccc32)cc1` (stereo not drawn) [Example 248, 7-(1-Cyclobutyl-piperidin-4-ylmethoxy)-4-(4-methoxy-phenyl)-2-methyl-1,2,3,4-tetrahydro-isoquinoline] the same measures were 5 nM and 7 nM.
On to `COc1ccc(C2CN(C)Cc3cc(OCC4CCN(C5CC5)CC4)ccc32)cc1` (stereo not drawn) [Example 249, 7-(1-Cyclopropyl-piperidin-4-ylmethoxy)-4-(4-methoxy-phenyl)-2-methyl-1,2,3,4-tetrahydro-isoquinoline], for which the Ki in test [3] is 4 nM; in test [1], 6 nM.
For `COc1ccc(C2CN(C)Cc3cc(OCC4CCN(CC(C)(C)O)CC4)ccc32)cc1` (stereo not drawn) [Example 250, 1-{4-[4-(4-Methoxy-phenyl)-2-methyl-1,2,3,4-tetrahydro-isoquinolin-7-yloxymethyl]-piperidin-1-yl}-2-methyl-propan-2-ol] the same measures were 34 nM and 4 nM.
In the case of `COc1ccc(C2CN(C)Cc3cc(OC[C@@H]4CNCCO4)ccc32)cc1` (stereo partly drawn) [Example 252, 4-(4-Methoxy-phenyl)-2-methyl-7-(morpholin-2S-ylmethoxy)-1,2,3,4-tetrahydro-isoquinoline], the inhibition constant (Ki) was determined as 233 nM in test [3] and 2 nM in test [1].
Consider `COc1ccc(C2CN(C)Cc3cc(OC[C@H]4CNCCO4)ccc32)cc1` (stereo partly drawn) [Example 253, 4-(4-Methoxy-phenyl)-2-methyl-7-(morpholin-2R-ylmethoxy)-1,2,3,4-tetrahydro-isoquinoline], for which the inhibition constant Ki was found to be 263 nM in test [3] and 2 nM in test [1].
Taken in the same sequence, the figures for `COc1ccc(C2CN(C)Cc3cc(OCCCN4CCOCC4)c(C)cc32)cc1` (stereo not drawn) [Example 266, 4-(4-Methoxy-phenyl)-2,6-dimethyl-7-(3-morpholin-4-yl-propoxy)-1,2,3,4-tetrahydro-isoquinoline] were 14 nM and 31 nM.
Consider `COc1ccc(C2CN(C)Cc3cc(OCCCN4CCOCC4)c(C)cc32)cc1F` (stereo not drawn) [Example 267, 4-(3-Fluoro-4-methoxy-phenyl)-2,6-dimethyl-7-(3-morpholin-4-yl-propoxy)-1,2,3,4-tetrahydro-isoquinoline], for which the Ki in test [3] stood at 12 nM; in test [1] it was 25 nM.
In the case of `COc1ccc(C2CN(C)Cc3c2ccc(OCCCN2CCOCC2)c3C)cc1F` (stereo not drawn) [Example 268, 4-(3-Fluoro-4-methoxy-phenyl)-2,8-dimethyl-7-(3-morpholin-4-yl-propoxy)-1,2,3,4-tetrahydro-isoquinoline], the values for the inhibition constant (Ki) in test [3] and in test [1] were 18 nM and 12 nM, respectively.
For the compound `COc1ccc(C2CN(C)Cc3c2ccc(OCCCN2CCOCC2)c3C)cc1` (stereo not drawn) [Example 269, 4-(4-Methoxy-phenyl)-2,8-dimethyl-7-(3-morpholin-4-yl-propoxy)-1,2,3,4-tetrahydro-isoquinoline], the results for the Ki in test [3] and in test [1] were 44 nM and 23 nM, respectively.
As for `CSc1ccc(C2CN(C)Cc3cc(OCCCN4CCCCC4)c(C)cc32)cc1` (stereo not drawn) [Example 270, 2,6-Dimethyl-4-(4-methylsulfanyl-phenyl)-7-(3-piperidin-1-yl-propoxy)-1,2,3,4-tetrahydro-isoquinoline], the inhibition constant Ki in test [3] is 6 nM; in test [1], 18 nM.

For the origin of these results see US20060194837A1, “Tetrahydroisoquinoline compounds” (priority 2004, published 2006).
